The values that follow come from paper PMC12754760, “Size-Controlled Mesoporous Silica Nanoparticles via Template Nanoarchitectonics from a Deferoxamine Derivative for Enhanced Blood–Brain Barrier Permeability and Neuroprotective Chelation Therapy” (ACS Applied Materials & Interfaces, 2025).

Structures can show the parent of a compound that is named as a salt.

The nature of series [1]: Caco-2 monolayer drug transport (in vitro BBB model). In kind it is in vitro ADME. The conditions noted are these: human. The protocol: The preparation of the Caco-2 cell monolayer as an in vitro BBB model was performed as follows: Caco-2 cells were seeded at a density of 10.000 cells per well on a Millicell 96-well cell culture plate. The culture medium was replaced every 48 h. The formation of the monolayer was monitored by measuring the transepithelial electrical resistance (TEER) using an epithelial voltohmmeter (Millicell-ERS). After 21 days of culture, the Caco-2 cell monolayers were used for permeability experiments. All TEER values measured immediately before the experiments were above 300 Ω·cm^2, confirming the integrity of the monolayer.
Drug transport experiments were carried out following the previously published protocol. Briefly, after 21 days of culture, the medium was removed, and the cells were washed twice with Hank’s Balanced Salt Solution (HBSS) to eliminate any residual culture medium. Subsequently, the wells were refilled with HBSS and incubated at 37 °C for 30 min. After incubation, the HBSS was removed, and solutions containing the compound were added either to the filter well (apical side) or to the receiver plate (basolateral side), while HBSS without the compound was added to the corresponding opposite side. The final concentration of the compounds was 10^–4 M. The plates were then incubated at 37 °C for 2 h. At the end of the incubation period, the samples from both compartments were collected and analyzed by UV–vis spectroscopy. The apparent permeability coefficient (Papp), expressed in nm·s^–1, was calculated using the following equation: 1 Papp=[VA/(area×time)]×([drug]acceptor/[drug]receptor) where VA is the volume (mL) in the acceptor well, area is the surface area of the membrane (0.11 cm^2 of the well), time is the total transport time (7200 s), and [drug] is drug concentration measured by UV–vis spectroscopy.
A general note: Passage across Caco-2 layers is used to estimate intestinal permeability.

Series [2] in a line: Cell viability assay SH-SY5Y (MTT). In kind it is cell-based. As to conditions: human, SH-SY5Y cells. On the procedure: Briefly, 10.000 BV-2 cells/well in 100 μL of culture medium were seeded into 96-well plates (transparent plate, clear bottom; Costar, Corning Inc.) and incubated overnight at 37 °C in 5% CO2. Stock solutions of the drug were preparate in DMSO, keeping it concentration <1% in the experiments. […] Stock solutions were prepared just before their use. Control wells with DMSO were used to evaluate the possible cytotoxicity of the solvent. After 72 h incubation, CCK-8 (10 μL) was added to each well, and after 3–4 h of incubation at 37 °C, the absorbance values at λ = 450 nm were determined on the Tecan Infinite 200 microplate reader. The cytotoxicity assay for SH-SY5Y was conducted by seeding cells at a density of 40.000 cells/well for 24 h in 96-well plate and incubated overnight. […] The plate was incubated for 24 h. After this time, MTT (10 μL) was added to each well, and after 3–4 h of incubation at 37 °C, the absorbance values at λ = 540 nm were determined on the Tecan Infinite 200 microplate reader.
Data were plotted as % cell viability, normalized vs untreated cells by using GraphPad Prism software version 7.05. Values are expressed as the mean ± SEM of at least three independent experiments. […]

For series [3] the following is noted: in vivo; cited from earlier work.

As to `CC(=O)N(O)CCCCCNC(=O)CCC(=O)N(O)CCCCCNC(=O)CCC(=O)N(O)CCCCCN` [DFO, Deferoxamine mesylate], the apical-to-basolateral permeability (Papp A→B) (as a rule, the apparent permeability from the apical to the basolateral side of a cell layer) at 2 h in series [1] (apical-to-basolateral, 10^–4 M, 2 h, 37 °C) is 76.1 ×10⁻⁶ cm/s. Further, the Papp B→A (usually how fast a substance crosses the layer from the basolateral side) at 2 h in series [1] (basolateral-to-apical, 10^–4 M, 2 h, 37 °C) is 162 ×10⁻⁶ cm/s. The efflux ratio at 2 h in series [1] (read-out: BA/AB permeability ratio) was 2.13. The viability – broadly, a read-out of living cells in per cent, often relative to untreated cells – at 24 h, 100 µM in series [2] is around 100%. In series [3], the Plasma half-life is 20 to 30 min.
